From paper PMC9516332 (Frontiers in Oncology, 2022)
Where two headings read alike, the source gives them in different places.

How the values were obtained:
AP-1060 (ETV6-NTRK3) = assay: Cell viability assay; conditions: read-out: IC50 in cell proliferation assay
134 cancer cell lines = assay: Cell viability assay (ATPlite, 72 hours), IC50 on cancer cell line panel

SMILES: CCn1c(=O)c(-c2cc(NC(=O)Nc3ccccc3)c(F)cc2Br)cc2cnc(NC)cc21 [ripretinib]
- IC50 (AP-1060 (ETV6-NTRK3)): 2.83 µM
- IC50 (134 cancer cell lines; HEC-6, read-out: IC50 in cell proliferation assay): 1.86 µM
- IC50 (134 cancer cell lines; Homo sapiens, 769-P, read-out: IC50 in cell proliferation assay): 2.58 µM
- IC50 (134 cancer cell lines; Homo sapiens, 786-0, read-out: IC50 in cell proliferation assay): 2.14 µM
- IC50 (134 cancer cell lines; Homo sapiens, A 172, read-out: IC50 in cell proliferation assay): 4.96 µM
- IC50 (134 cancer cell lines; Homo sapiens, A204, read-out: IC50 in cell proliferation assay): 0.52 µM
- IC50 (134 cancer cell lines; Homo sapiens, A498, read-out: IC50 in cell proliferation assay): 1.14 µM
- IC50 (134 cancer cell lines; Homo sapiens, A549, read-out: IC50 in cell proliferation assay): 2.69 µM
- IC50 (134 cancer cell lines; Homo sapiens, A704, read-out: IC50 in cell proliferation assay): 2.21 µM
- IC50 (134 cancer cell lines; Homo sapiens, A-375, read-out: IC50 in cell proliferation assay): 2.92 µM
- IC50 (134 cancer cell lines; Homo sapiens, A-427, read-out: IC50 in cell proliferation assay): 1.52 µM
- IC50 (134 cancer cell lines; Homo sapiens, ACHN, read-out: IC50 in cell proliferation assay): 1.47 µM
- IC50 (134 cancer cell lines; Homo sapiens, AN3-CA, read-out: IC50 in cell proliferation assay): 1.01 µM
- IC50 (134 cancer cell lines; Homo sapiens, ASPC1, read-out: IC50 in cell proliferation assay): 7.56 µM
- IC50 (134 cancer cell lines; Homo sapiens, AU565, read-out: IC50 in cell proliferation assay): 3.75 µM
- IC50 (134 cancer cell lines; Homo sapiens, BT-20, read-out: IC50 in cell proliferation assay): 7.43 µM
- IC50 (134 cancer cell lines; Homo sapiens, BT-474, read-out: IC50 in cell proliferation assay): 2.23 µM
- IC50 (134 cancer cell lines; Homo sapiens, BT-549, read-out: IC50 in cell proliferation assay): 4.51 µM
- IC50 (134 cancer cell lines; Homo sapiens, BXPC-3, read-out: IC50 in cell proliferation assay): 1.51 µM
- IC50 (134 cancer cell lines; Homo sapiens, C-33-A, read-out: IC50 in cell proliferation assay): 4.83 µM
- IC50 (134 cancer cell lines; Homo sapiens, CAL-27, read-out: IC50 in cell proliferation assay): 9.8 µM
- IC50 (134 cancer cell lines; Homo sapiens, CCF-STTG1, read-out: IC50 in cell proliferation assay): > 31.6 µM
- IC50 (134 cancer cell lines; Homo sapiens, CCRF-CEM, read-out: IC50 in cell proliferation assay): 4.98 µM
- IC50 (134 cancer cell lines; Homo sapiens, COLO 205, read-out: IC50 in cell proliferation assay): 1.87 µM
- IC50 (134 cancer cell lines; Homo sapiens, COLO-829, read-out: IC50 in cell proliferation assay): 2.49 µM
- IC50 (134 cancer cell lines; Homo sapiens, DLD-1, read-out: IC50 in cell proliferation assay): 1.54 µM
- IC50 (134 cancer cell lines; Homo sapiens, DU-145, read-out: IC50 in cell proliferation assay): 1.97 µM
- IC50 (134 cancer cell lines; Homo sapiens, DU-4475, read-out: IC50 in cell proliferation assay): 3.38 µM
- IC50 (134 cancer cell lines; Homo sapiens, Daoy, read-out: IC50 in cell proliferation assay): 2.06 µM
- IC50 (134 cancer cell lines; Homo sapiens, DoTc2-4510, read-out: IC50 in cell proliferation assay): 6.21 µM
- IC50 (134 cancer cell lines; Homo sapiens, EOL1, read-out: IC50 in cell proliferation assay): 0.000634 µM
- IC50 (134 cancer cell lines; Homo sapiens, FaDu, read-out: IC50 in cell proliferation assay): 3.05 µM
- IC50 (134 cancer cell lines; Homo sapiens, G-361, read-out: IC50 in cell proliferation assay): 2.52 µM
- IC50 (134 cancer cell lines; Homo sapiens, HCC827, read-out: IC50 in cell proliferation assay): 3.83 µM
- IC50 (134 cancer cell lines; Homo sapiens, HCC4006, read-out: IC50 in cell proliferation assay): > 31.6 µM
- IC50 (134 cancer cell lines; Homo sapiens, HCT-15, read-out: IC50 in cell proliferation assay): 2.56 µM
- IC50 (134 cancer cell lines; Homo sapiens, HCT-116, read-out: IC50 in cell proliferation assay): 3.02 µM
- IC50 (134 cancer cell lines; Homo sapiens, HEC-1, read-out: IC50 in cell proliferation assay): 1.36 µM
- IC50 (134 cancer cell lines; Homo sapiens, HEC-1B, read-out: IC50 in cell proliferation assay): 0.426 µM
- IC50 (134 cancer cell lines; Homo sapiens, HL-60, read-out: IC50 in cell proliferation assay): 1.81 µM
- IC50 (134 cancer cell lines; Homo sapiens, HT, read-out: IC50 in cell proliferation assay): > 31.6 µM
- IC50 (134 cancer cell lines; Homo sapiens, HT-1080, read-out: IC50 in cell proliferation assay): 1.7 µM
- IC50 (134 cancer cell lines; Homo sapiens, Hs746T, read-out: IC50 in cell proliferation assay): 3.1 µM
- IC50 (134 cancer cell lines; Homo sapiens, Hs-578T, read-out: IC50 in cell proliferation assay): 3.73 µM
- IC50 (134 cancer cell lines; Homo sapiens, HuTu80, read-out: IC50 in cell proliferation assay): 1.58 µM
- IC50 (134 cancer cell lines; Homo sapiens, J82, read-out: IC50 in cell proliferation assay): 2.3 µM
- IC50 (134 cancer cell lines; Homo sapiens, Jurkat E6.1, read-out: IC50 in cell proliferation assay): 2.64 µM
- IC50 (134 cancer cell lines; Homo sapiens, K562, read-out: IC50 in cell proliferation assay): 1.85 µM
- IC50 (134 cancer cell lines; Homo sapiens, KATO III, read-out: IC50 in cell proliferation assay): 0.676 µM
- IC50 (134 cancer cell lines; Homo sapiens, KG-1, read-out: IC50 in cell proliferation assay): 0.59 µM
- IC50 (134 cancer cell lines; Homo sapiens, KLE, read-out: IC50 in cell proliferation assay): 9.98 µM
- IC50 (134 cancer cell lines; Homo sapiens, KMS-11, read-out: IC50 in cell proliferation assay): 4.57 µM
- IC50 (134 cancer cell lines; Homo sapiens, KU812, read-out: IC50 in cell proliferation assay): 0.85 µM
- IC50 (134 cancer cell lines; Homo sapiens, Kasumi 1, read-out: IC50 in cell proliferation assay): 0.055 µM
- IC50 (134 cancer cell lines; Homo sapiens, LC-2-ad, read-out: IC50 in cell proliferation assay): 5.38 µM
- IC50 (134 cancer cell lines; Homo sapiens, LNCaP-Clone-FGC, read-out: IC50 in cell proliferation assay): 4.88 µM
- IC50 (134 cancer cell lines; Homo sapiens, LS174T, read-out: IC50 in cell proliferation assay): 9.31 µM
- IC50 (134 cancer cell lines; Homo sapiens, LS-411N, read-out: IC50 in cell proliferation assay): 2.72 µM
- IC50 (134 cancer cell lines; Homo sapiens, LoVo, read-out: IC50 in cell proliferation assay): 3.04 µM
- IC50 (134 cancer cell lines; Homo sapiens, MCF7, read-out: IC50 in cell proliferation assay): > 31.6 µM
- IC50 (134 cancer cell lines; Homo sapiens, MDA-MB-231, read-out: IC50 in cell proliferation assay): 1.26 µM
- IC50 (134 cancer cell lines; Homo sapiens, MDA-MB-453, read-out: IC50 in cell proliferation assay): 3.53 µM
- IC50 (134 cancer cell lines; Homo sapiens, MDA-MB-468, read-out: IC50 in cell proliferation assay): 2.47 µM
- IC50 (134 cancer cell lines; Homo sapiens, MG-63, read-out: IC50 in cell proliferation assay): 12.3 µM
- IC50 (134 cancer cell lines; Homo sapiens, MIA PaCa-2, read-out: IC50 in cell proliferation assay): 24.2 µM
- IC50 (134 cancer cell lines; Homo sapiens, MKN-45, read-out: IC50 in cell proliferation assay): > 31.6 µM
- IC50 (134 cancer cell lines; Homo sapiens, MOLM-13, read-out: IC50 in cell proliferation assay): 0.238 µM
- IC50 (134 cancer cell lines; Homo sapiens, MOLT-4, read-out: IC50 in cell proliferation assay): 3.83 µM
- IC50 (134 cancer cell lines; Homo sapiens, MV4-11, read-out: IC50 in cell proliferation assay): 0.578 µM
- IC50 (134 cancer cell lines; Homo sapiens, MeWo, read-out: IC50 in cell proliferation assay): 3.58 µM
- IC50 (134 cancer cell lines; Homo sapiens, NCCIT, read-out: IC50 in cell proliferation assay): 1.73 µM
- IC50 (134 cancer cell lines; Homo sapiens, NCI-H82, read-out: IC50 in cell proliferation assay): 1.11 µM
- IC50 (134 cancer cell lines; Homo sapiens, NCI-H460, read-out: IC50 in cell proliferation assay): 1.62 µM
- IC50 (134 cancer cell lines; Homo sapiens, NCI-H661, read-out: IC50 in cell proliferation assay): 11.8 µM
- IC50 (134 cancer cell lines; Homo sapiens, NCI-H716, read-out: IC50 in cell proliferation assay): 1.44 µM
- IC50 (134 cancer cell lines; Homo sapiens, NCI-H1650, read-out: IC50 in cell proliferation assay): > 31.6 µM
- IC50 (134 cancer cell lines; Homo sapiens, NCI-H1975, read-out: IC50 in cell proliferation assay): 2.17 µM
- IC50 (134 cancer cell lines; Homo sapiens, NCI-H2228, read-out: IC50 in cell proliferation assay): 4.14 µM
- IC50 (134 cancer cell lines; Homo sapiens, OVCAR-3, read-out: IC50 in cell proliferation assay): 2 µM
- IC50 (134 cancer cell lines; Homo sapiens, PFSK-1, read-out: IC50 in cell proliferation assay): 8 µM
- IC50 (134 cancer cell lines; Homo sapiens, RL95-2, read-out: IC50 in cell proliferation assay): 1.13 µM
- IC50 (134 cancer cell lines; Homo sapiens, RPMI-7951, read-out: IC50 in cell proliferation assay): 6.45 µM
- IC50 (134 cancer cell lines; Homo sapiens, RS4-11, read-out: IC50 in cell proliferation assay): 1.17 µM
- IC50 (134 cancer cell lines; Homo sapiens, Rec1, read-out: IC50 in cell proliferation assay): 5.27 µM
- IC50 (134 cancer cell lines; Homo sapiens, SHP77, read-out: IC50 in cell proliferation assay): > 31.6 µM
- IC50 (134 cancer cell lines; Homo sapiens, SK-BR-3, read-out: IC50 in cell proliferation assay): 2.04 µM
- IC50 (134 cancer cell lines; Homo sapiens, SK-N-AS, read-out: IC50 in cell proliferation assay): 2.37 µM
- IC50 (134 cancer cell lines; Homo sapiens, SK-N-FI, read-out: IC50 in cell proliferation assay): 2.92 µM
- IC50 (134 cancer cell lines; Homo sapiens, SK-N-MC, read-out: IC50 in cell proliferation assay): 4.76 µM
- IC50 (134 cancer cell lines; Homo sapiens, SK-N-SH, read-out: IC50 in cell proliferation assay): 3.61 µM
- IC50 (134 cancer cell lines; Homo sapiens, SNU-5, read-out: IC50 in cell proliferation assay): 30.2 µM
- IC50 (134 cancer cell lines; Homo sapiens, SNU-16, read-out: IC50 in cell proliferation assay): 0.773 µM
- IC50 (134 cancer cell lines; Homo sapiens, SNU-C2B, read-out: IC50 in cell proliferation assay): 15.7 µM
- IC50 (134 cancer cell lines; Homo sapiens, SU-DHL-1, read-out: IC50 in cell proliferation assay): 2.78 µM
- IC50 (134 cancer cell lines; Homo sapiens, SU-DHL-6, read-out: IC50 in cell proliferation assay): 8.19 µM
- IC50 (134 cancer cell lines; Homo sapiens, SUP-T1, read-out: IC50 in cell proliferation assay): 2.46 µM
- IC50 (134 cancer cell lines; Homo sapiens, SW48, read-out: IC50 in cell proliferation assay): 2.84 µM
- IC50 (134 cancer cell lines; Homo sapiens, SW480, read-out: IC50 in cell proliferation assay): 3.6 µM
- IC50 (134 cancer cell lines; Homo sapiens, SW626, read-out: IC50 in cell proliferation assay): 3.91 µM
- IC50 (134 cancer cell lines; Homo sapiens, SW780, read-out: IC50 in cell proliferation assay): 30.7 µM
- IC50 (134 cancer cell lines; Homo sapiens, SW837, read-out: IC50 in cell proliferation assay): 7.36 µM
- IC50 (134 cancer cell lines; Homo sapiens, SW872, read-out: IC50 in cell proliferation assay): 2.46 µM
- IC50 (134 cancer cell lines; Homo sapiens, SW900, read-out: IC50 in cell proliferation assay): 9.13 µM
- IC50 (134 cancer cell lines; Homo sapiens, SW948, read-out: IC50 in cell proliferation assay): 1.68 µM
- IC50 (134 cancer cell lines; Homo sapiens, SW982, read-out: IC50 in cell proliferation assay): 2.26 µM
- IC50 (134 cancer cell lines; Homo sapiens, SW-620, read-out: IC50 in cell proliferation assay): 1.9 µM
- IC50 (134 cancer cell lines; Homo sapiens, T98G, read-out: IC50 in cell proliferation assay): 3.47 µM
- IC50 (134 cancer cell lines; Homo sapiens, TCC-SUP, read-out: IC50 in cell proliferation assay): 1.29 µM
- IC50 (134 cancer cell lines; Homo sapiens, THP-1, read-out: IC50 in cell proliferation assay): 0.981 µM
- IC50 (134 cancer cell lines; Homo sapiens, U2OS, read-out: IC50 in cell proliferation assay): 3.38 µM
- IC50 (134 cancer cell lines; Homo sapiens, U-87 MG, read-out: IC50 in cell proliferation assay): > 31.6 µM
- IC50 (134 cancer cell lines; Homo sapiens, U-118-MG, read-out: IC50 in cell proliferation assay): 4.22 µM
- IC50 (134 cancer cell lines; Homo sapiens, UMUC3, read-out: IC50 in cell proliferation assay): 2.89 µM
- IC50 (134 cancer cell lines; Hs766T, read-out: IC50 in cell proliferation assay): 4.7 µM
- IC50 (134 cancer cell lines; L-82, read-out: IC50 in cell proliferation assay): 3.03 µM
- IC50 (134 cancer cell lines; Rh30, read-out: IC50 in cell proliferation assay): 3 µM
